From ChEMBL document CHEMBL5291721, “A preclinical secondary pharmacology resource illuminates target-adverse drug reaction associations of marketed drugs” (Nat Commun, 2023)
Where a SMILES comes first, the peptide text is derived from it. [ ]: non-standard residue; d: D form. pGlu = O=C1CC[C@@H](C(=O)O)N1; Thz = O=C(O)[C@@H]1CSCN1

Legend:
[1] = target: Histamine H3 receptor (Homo sapiens, UniProt Q9Y5N1)
[2] = target: Histamine H2 receptor (Homo sapiens, UniProt P25021); assay type: functional, cell-based
Chain of Histamine H2 receptor (P25021 whole entry): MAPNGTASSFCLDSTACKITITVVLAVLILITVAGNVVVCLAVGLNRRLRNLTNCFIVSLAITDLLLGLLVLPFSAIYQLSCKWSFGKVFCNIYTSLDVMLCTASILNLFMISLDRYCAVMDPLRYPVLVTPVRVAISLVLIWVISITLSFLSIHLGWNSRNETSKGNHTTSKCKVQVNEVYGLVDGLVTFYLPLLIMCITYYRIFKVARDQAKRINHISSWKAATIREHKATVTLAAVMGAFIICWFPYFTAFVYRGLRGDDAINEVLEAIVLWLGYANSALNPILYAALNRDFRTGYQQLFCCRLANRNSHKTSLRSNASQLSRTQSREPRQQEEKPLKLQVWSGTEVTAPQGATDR

[3] = target: 3',5'-cyclic-AMP phosphodiesterase 4D (Homo sapiens, UniProt Q08499); assay type: functional
Chain of 3',5'-cyclic-AMP phosphodiesterase 4D (Q08499 whole entry): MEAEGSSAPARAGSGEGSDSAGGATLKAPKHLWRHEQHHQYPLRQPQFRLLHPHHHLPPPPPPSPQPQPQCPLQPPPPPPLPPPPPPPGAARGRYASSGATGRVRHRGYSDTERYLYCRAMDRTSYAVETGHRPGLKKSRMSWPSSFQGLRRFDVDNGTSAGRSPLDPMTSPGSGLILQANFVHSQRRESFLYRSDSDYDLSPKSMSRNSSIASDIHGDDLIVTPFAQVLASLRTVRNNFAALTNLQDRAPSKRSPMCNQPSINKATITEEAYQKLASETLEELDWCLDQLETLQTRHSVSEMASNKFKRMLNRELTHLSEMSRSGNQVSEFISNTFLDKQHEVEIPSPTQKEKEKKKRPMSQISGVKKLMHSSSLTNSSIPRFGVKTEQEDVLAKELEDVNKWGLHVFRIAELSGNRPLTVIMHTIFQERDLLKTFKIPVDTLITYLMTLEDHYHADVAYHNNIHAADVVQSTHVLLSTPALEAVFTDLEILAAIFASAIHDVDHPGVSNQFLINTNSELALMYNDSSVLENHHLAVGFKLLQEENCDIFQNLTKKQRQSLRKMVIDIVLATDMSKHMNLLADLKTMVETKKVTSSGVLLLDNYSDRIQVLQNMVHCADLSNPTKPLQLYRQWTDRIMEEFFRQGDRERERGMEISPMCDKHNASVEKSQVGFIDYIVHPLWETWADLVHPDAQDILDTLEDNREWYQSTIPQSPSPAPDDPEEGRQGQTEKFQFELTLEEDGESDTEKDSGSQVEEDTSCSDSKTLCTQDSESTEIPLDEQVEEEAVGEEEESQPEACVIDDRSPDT

[4] = target: T1, Gamma-aminobutyric acid receptor subunit alpha-1 (Rattus norvegicus, UniProt P62813)
T1 sequence (P62813 whole entry): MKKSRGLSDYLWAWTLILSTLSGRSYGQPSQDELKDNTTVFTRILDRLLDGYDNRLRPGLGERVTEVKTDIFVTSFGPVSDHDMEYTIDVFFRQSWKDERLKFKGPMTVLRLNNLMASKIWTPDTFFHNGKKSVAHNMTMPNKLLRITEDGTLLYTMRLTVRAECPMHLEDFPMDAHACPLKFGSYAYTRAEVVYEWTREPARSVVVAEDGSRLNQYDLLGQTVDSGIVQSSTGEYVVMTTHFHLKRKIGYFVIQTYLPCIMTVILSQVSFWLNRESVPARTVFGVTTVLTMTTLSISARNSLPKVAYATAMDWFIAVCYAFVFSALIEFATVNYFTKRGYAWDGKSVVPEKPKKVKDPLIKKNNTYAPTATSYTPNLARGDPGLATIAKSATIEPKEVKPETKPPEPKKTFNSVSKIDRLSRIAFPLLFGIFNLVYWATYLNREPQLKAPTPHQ

[5] = target: Beta-2 adrenergic receptor (Homo sapiens, UniProt P07550)
Chain of Beta-2 adrenergic receptor (P07550 whole entry): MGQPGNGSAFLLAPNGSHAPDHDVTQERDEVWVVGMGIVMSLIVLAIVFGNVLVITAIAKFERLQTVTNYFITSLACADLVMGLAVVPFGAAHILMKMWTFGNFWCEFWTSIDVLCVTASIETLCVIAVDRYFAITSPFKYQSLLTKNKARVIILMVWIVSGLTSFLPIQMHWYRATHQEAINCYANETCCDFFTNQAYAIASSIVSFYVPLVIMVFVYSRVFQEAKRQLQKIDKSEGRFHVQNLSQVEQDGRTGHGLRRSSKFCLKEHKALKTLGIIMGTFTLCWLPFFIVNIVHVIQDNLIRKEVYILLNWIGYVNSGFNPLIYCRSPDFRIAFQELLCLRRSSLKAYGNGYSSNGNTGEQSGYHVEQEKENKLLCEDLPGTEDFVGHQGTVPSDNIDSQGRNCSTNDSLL

[6] = target: Sodium-dependent dopamine transporter (Homo sapiens, UniProt Q01959)
Chain of Sodium-dependent dopamine transporter (Q01959 whole entry): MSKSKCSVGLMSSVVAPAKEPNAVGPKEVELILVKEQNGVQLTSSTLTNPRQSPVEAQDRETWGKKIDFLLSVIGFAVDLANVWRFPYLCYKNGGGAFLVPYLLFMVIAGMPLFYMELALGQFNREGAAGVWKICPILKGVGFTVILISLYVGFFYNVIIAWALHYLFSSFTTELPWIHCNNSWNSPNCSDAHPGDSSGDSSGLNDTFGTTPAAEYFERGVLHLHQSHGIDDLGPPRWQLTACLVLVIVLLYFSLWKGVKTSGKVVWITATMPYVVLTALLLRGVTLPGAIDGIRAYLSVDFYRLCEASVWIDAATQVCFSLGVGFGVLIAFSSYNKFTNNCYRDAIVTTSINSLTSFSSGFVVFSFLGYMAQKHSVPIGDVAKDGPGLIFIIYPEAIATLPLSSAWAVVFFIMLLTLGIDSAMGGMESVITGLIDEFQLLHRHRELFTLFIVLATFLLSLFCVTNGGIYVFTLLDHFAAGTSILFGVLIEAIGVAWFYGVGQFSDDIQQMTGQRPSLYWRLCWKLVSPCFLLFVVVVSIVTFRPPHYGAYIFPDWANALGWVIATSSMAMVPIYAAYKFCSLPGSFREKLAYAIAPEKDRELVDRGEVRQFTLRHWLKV

[7] = target: T2, 5-hydroxytryptamine receptor 3A (Homo sapiens, UniProt P46098); assay type: functional
T2 sequence (P46098 whole entry): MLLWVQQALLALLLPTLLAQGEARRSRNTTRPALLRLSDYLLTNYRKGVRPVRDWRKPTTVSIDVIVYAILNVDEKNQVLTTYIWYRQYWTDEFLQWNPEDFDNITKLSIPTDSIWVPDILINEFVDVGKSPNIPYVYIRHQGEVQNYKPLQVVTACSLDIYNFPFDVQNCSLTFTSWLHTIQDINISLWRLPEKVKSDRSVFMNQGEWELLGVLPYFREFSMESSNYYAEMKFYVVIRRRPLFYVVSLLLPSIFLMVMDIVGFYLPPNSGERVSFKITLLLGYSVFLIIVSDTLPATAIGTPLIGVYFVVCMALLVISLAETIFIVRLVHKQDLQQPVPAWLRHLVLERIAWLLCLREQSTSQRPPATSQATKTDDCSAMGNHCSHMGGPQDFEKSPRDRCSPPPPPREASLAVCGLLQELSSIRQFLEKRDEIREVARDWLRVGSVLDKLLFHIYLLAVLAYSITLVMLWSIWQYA

[8] = target: Voltage-gated inwardly rectifying potassium channel KCNH2 (Homo sapiens, UniProt Q12809); assay type: functional
Chain of Voltage-gated inwardly rectifying potassium channel KCNH2 (Q12809 whole entry): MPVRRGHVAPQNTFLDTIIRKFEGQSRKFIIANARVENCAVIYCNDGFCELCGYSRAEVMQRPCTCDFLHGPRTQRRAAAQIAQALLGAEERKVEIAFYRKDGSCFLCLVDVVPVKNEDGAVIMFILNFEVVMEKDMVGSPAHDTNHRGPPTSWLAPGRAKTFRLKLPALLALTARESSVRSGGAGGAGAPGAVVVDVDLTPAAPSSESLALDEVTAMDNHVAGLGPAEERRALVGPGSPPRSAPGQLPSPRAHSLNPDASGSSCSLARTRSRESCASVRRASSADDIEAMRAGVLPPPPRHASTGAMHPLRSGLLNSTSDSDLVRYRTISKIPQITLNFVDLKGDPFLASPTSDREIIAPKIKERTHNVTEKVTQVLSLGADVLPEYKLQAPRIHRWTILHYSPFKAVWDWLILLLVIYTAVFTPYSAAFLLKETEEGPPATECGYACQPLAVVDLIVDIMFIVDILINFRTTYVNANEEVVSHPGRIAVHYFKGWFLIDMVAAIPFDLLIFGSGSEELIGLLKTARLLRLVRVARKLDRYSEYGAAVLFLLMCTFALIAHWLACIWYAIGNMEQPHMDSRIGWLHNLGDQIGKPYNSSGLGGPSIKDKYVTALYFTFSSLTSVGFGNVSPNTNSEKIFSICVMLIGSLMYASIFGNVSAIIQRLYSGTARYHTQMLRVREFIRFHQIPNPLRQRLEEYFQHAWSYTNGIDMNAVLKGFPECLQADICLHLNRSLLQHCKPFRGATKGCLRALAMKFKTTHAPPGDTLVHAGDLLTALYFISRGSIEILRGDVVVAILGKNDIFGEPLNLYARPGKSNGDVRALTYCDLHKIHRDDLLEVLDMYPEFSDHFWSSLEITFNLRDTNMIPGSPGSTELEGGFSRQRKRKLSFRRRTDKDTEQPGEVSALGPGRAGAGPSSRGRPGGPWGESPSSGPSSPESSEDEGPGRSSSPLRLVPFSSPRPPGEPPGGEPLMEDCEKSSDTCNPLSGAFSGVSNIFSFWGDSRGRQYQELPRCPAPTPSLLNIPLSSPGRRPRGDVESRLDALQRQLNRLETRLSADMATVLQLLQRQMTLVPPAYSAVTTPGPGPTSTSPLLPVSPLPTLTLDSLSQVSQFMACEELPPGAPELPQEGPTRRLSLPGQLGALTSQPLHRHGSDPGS

[9] = target: T3, Adenosine receptor A1 (Homo sapiens, UniProt P30542)
T3 sequence (P30542 whole entry): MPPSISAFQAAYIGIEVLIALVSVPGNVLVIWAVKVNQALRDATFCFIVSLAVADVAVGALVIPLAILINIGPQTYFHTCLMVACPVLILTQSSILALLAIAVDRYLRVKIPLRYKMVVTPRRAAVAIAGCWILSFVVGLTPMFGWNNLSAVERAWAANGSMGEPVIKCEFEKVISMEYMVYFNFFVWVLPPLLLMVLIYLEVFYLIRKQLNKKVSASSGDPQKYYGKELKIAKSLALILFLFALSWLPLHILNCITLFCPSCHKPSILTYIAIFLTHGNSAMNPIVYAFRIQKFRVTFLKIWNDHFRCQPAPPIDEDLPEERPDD

[10] = target: Beta-1 adrenergic receptor (Homo sapiens, UniProt P08588); assay type: functional
[11] = target: T4, Amine oxidase [flavin-containing] A (Homo sapiens, UniProt P21397); assay type: functional
T4 sequence (P21397 whole entry): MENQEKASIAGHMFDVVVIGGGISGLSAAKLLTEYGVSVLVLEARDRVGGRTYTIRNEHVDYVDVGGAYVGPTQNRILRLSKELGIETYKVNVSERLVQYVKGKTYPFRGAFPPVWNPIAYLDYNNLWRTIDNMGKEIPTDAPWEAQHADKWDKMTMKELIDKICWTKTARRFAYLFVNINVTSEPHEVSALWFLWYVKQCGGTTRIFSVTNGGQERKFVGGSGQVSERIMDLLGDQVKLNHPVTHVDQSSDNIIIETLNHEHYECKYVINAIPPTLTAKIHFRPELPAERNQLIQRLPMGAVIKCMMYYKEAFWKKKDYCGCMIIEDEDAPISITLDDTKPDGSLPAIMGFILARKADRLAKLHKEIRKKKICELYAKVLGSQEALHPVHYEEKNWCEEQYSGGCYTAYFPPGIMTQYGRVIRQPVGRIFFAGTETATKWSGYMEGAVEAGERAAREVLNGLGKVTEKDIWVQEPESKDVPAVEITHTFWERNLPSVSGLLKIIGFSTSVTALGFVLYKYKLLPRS

[12] = target: Vasopressin V1a receptor (Homo sapiens, UniProt P37288)
Chain of Vasopressin V1a receptor (P37288 whole entry): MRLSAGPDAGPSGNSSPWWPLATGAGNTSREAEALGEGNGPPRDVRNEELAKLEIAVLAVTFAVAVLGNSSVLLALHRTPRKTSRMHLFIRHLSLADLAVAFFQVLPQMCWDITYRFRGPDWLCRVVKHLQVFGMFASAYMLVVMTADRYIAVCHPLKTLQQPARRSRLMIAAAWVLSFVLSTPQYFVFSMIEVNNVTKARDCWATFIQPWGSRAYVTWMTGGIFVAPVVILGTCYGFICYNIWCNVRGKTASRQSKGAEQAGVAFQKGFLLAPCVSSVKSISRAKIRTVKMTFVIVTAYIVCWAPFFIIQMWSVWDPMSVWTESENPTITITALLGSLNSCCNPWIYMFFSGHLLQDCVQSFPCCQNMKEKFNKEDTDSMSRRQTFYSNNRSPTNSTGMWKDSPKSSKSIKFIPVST

[13] = target: T5, Cholecystokinin receptor type A (Homo sapiens, UniProt P32238)
T5 sequence (P32238 whole entry): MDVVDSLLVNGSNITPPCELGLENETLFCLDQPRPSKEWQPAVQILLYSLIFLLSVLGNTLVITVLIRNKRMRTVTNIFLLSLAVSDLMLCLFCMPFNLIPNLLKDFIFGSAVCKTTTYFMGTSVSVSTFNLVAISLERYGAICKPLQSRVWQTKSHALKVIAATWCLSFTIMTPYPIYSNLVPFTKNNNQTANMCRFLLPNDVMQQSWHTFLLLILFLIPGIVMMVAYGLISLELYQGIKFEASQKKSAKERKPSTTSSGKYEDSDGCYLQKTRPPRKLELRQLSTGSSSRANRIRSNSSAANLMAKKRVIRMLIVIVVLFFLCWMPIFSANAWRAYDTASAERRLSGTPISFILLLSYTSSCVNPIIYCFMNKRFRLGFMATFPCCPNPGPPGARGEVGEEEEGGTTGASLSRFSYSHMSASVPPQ

[14] = target: T1, Gamma-aminobutyric acid receptor subunit alpha-1; assay type: functional
Further: assay procedure not described here.

Chain of Histamine H3 receptor (Q9Y5N1 whole entry): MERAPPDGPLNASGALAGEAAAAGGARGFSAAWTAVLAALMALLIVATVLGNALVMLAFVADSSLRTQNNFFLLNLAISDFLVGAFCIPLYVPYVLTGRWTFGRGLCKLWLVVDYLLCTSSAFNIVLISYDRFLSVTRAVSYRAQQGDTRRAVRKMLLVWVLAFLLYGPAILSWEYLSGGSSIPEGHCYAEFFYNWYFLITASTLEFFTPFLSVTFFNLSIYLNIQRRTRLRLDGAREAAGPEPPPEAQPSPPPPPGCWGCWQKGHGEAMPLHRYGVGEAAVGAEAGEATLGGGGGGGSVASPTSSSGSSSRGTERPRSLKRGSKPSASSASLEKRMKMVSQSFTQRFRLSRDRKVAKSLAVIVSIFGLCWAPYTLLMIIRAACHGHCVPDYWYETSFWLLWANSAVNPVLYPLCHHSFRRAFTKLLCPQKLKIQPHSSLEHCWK

Compound | AC50 [1] [µM] | AC50 [2] [µM] | AC50 [3] [µM] | AC50 [4] [µM] | AC50 [5] [µM] | AC50 [6] [µM] | AC50 [7] [µM] | AC50 [8] [µM] | AC50 [9] [µM] | AC50 [10] [µM] | AC50 [11] [µM] | AC50 [12] [µM] | AC50 [13] [µM] | AC50 [14] [µM]
Cc1ccnc2c1NC(=O)c1cccnc1N2C1CC1 [NEVIRAPINE] | > 10 | > 10 | > 10 | > 10 | > 10 | > 10 | > 10 | > 30 | 31.2 | > 10 | > 10 | > 10 | > 30 | > 10
OC[C@H]1O[C@@H](Oc2cc(O)cc(/C=C/c3ccc(O)cc3)c2)[C@H](O)[C@@H](O)[C@@H]1O [PICEID] | > 30 | > 30 | > 30 | > 30 | > 30 | > 30 | > 30 | > 30 | > 30 | > 30 | > 30 | > 30 | > 30 | > 30
O=C1CC[C@@H](C(=O)N2CSC[C@H]2C(=O)O)N1 [PIDOTIMOD] ([pGlu]-[Thz]-OH) | > 30 | > 30 | > 30 | > 30 | > 30 | > 30 | > 30 | > 30 | > 30 | > 30 | > 30 | > 30 | > 30 | > 30
CCC(NC(C)C)C(O)c1ccc(O)c2[nH]c(=O)ccc12 (configuration not stated) [PROCATEROL] | > 30 | > 30 | > 30 | > 30 | 0.2 | > 30 | > 30 | > 30 | > 30 | 17 | > 30 | > 30 | > 30 | > 30
CCC(=O)O[C@](Cc1ccccc1)(c1ccccc1)[C@H](C)CN(C)C [PROPOXYPHENE] | > 10 | > 10 | > 30 | > 10 | > 10 | > 10 | > 30 | 1.74 | > 30 | > 10 | > 10 | > 10 | > 30 | > 10
C=CC[N+]1([C@H]2C[C@H]3[C@@H]4CC[C@H]5C[C@H](O)[C@@H](N6CCOCC6)C[C@]5(C)[C@H]4CC[C@]3(C)[C@H]2OC(C)=O)CCCC1 [ROCURONIUM] | > 30 | > 30 | > 30 | > 30 | > 30 | > 30 | > 30 | 1.06 | > 30 | > 30 | > 30 | > 30 | > 30 | > 30
CCCN1CCCC[C@H]1C(=O)Nc1c(C)cccc1C [ROPIVACAINE] | > 30 | > 30 | > 30 | > 30 | > 30 | > 30 | > 30 | > 30 | > 30 | > 30 | > 30 | > 30 | > 30 | > 30
CCN1CCCC1CNC(=O)c1cc(S(=O)(=O)CC)ccc1OC (configuration not stated) [SULTOPRIDE] | 22 | > 30 | > 30 | > 30 | > 30 | > 30 | > 30 | 3.5 | > 30 | > 30 | > 30 | > 30 | > 30 | > 30
